The source of these data is ChEMBL document CHEMBL1201862, “PubChem BioAssay data set” (2004).

The source made the active and inactive calls.

The target of one test is Major prion protein (Homo sapiens, UniProt P04156). Format: functional, cell-based.
The nature of test [1]: cells.
The target of a further test is Prothrombin (Homo sapiens, UniProt P00734). Put plainly: Thrombin 1536 HTS Dose Response Confirmation. [Related pubchem assays: 1046 (Thrombin 1536 HTS; hits were confirmed in this assay)]. Format: functional.
In another test the target is fMet-Leu-Phe receptor (Homo sapiens, UniProt P21462). Put plainly: FPR ligands, dose response (AID 519). The format is functional.
Test [2] is described as follows: Luminescence Cell-Based Dose Retest to Confirm Inhibitors of Cancer Stem Cells. [Related pubchem assays (depositor defined):AID2717, AID2721]. The format is functional. To be noted: Homo sapiens.
Test [3] is described as follows: ADAM10 inhibitors, peptide cleavage, dose response, biochemical, QFRET (AID 743254).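 Further: ADAM10 enzyme with the DM2 quenched FRET peptide as substrate; EDANS fluorescence gain as the protease cuts the substrate; inhibitor potency against ADAM10 proteolytic activity.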
Test [4] addresses Disintegrin and metalloproteinase domain-containing protein 17 (Homo sapiens, UniProt P78536). The experiment in a line: ADAM17 protease inhibitors, dose response, counter-screen for ADAM10 exosite inhibitor project, biochemical, quenched FRET substrate (AID 743253).
The nature of test [5]: A549 cell cytotoxicity, dose response, cytotoxicity control, plate reader, dry powder, set 6 (AID 743312). The format is functional, cell-based.
Test [6] is described as follows: cells. The note with it: HEK293.
Test [7] concerns the target T1, Oxysterols receptor LXR-beta (Homo sapiens, UniProt P55055).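 Further: Cell-based luminescence dose-response assay of agonist activity at LXR, run as a confirmatory counterscreen to a daf-12 agonist screen; HEK293 cells with Gal4-LXR fusion and GAL4-driven luciferase reporter; agonist potency from rising luciferase signal of a Gal4-LXR reporter.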
T1 sequence (P55055 whole entry): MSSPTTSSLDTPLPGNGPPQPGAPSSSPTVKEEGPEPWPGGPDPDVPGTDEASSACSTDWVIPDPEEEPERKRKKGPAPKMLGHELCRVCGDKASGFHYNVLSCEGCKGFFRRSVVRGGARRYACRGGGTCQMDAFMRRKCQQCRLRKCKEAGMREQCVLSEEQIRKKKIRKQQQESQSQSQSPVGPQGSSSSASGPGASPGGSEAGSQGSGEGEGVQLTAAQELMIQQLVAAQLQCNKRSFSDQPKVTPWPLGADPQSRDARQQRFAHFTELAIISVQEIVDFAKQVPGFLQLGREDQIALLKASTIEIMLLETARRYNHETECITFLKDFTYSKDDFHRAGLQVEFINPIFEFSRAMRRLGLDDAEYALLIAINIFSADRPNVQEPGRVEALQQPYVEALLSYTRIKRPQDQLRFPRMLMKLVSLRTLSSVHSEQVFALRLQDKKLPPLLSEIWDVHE
Format: functional, cell-based.

Test [8] is described as follows: cells. The source holds these as a separate data set.
A short description of test [9]: P. falciparum 3D7-ScDHODH growth inhibitors, dose response, SYBR Green, dry powder samples (AID 1159570).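 Further: parasite growth measured after 72 hours of compound exposure.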 The format is functional, cell-based.
A short description of test [10]: P. falciparum Dd2 growth inhibitors, dose response, SYBR Green, cherry-picked samples (AID 1159567). The format is functional, cell-based.
A short description of test [11]: P. falciparum Dd2 growth inhibitors, dose response, SYBR Green, dry powder samples (AID 1159566).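 Further: potency for growth inhibition with lower SYBR green DNA signal.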 Format: functional, cell-based.
Test [12] is described as follows: P. falciparum ATP4 D1247Y mutant growth inhibitors, dose response, NITD609-resistant line, SYBR Green, dry powder (AID 1159571).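 Further: parasites synchronized at ring stage by sorbitol before testing.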 The format is functional, cell-based.
A further test has as its target Protein Tat (Human immunodeficiency virus type 1 group M subtype B (isolate HXB2)(HIV-1), UniProt P04608). The format is functional.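 Further: tat binding to TAR RNA read out by fluorescence polarization.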
Test [13] can be described thus: inhibitors of Vif binding to APOBEC3G peptide, primary screen, biochemical, TR-FRET, GST-Vif 1-94, biotin-A3G peptide, dose response retest (AID 1117319).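 Further: inhibitors lower the FRET signal by blocking Vif and A3G binding.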 The format is functional. On the technique in general: In TR-FRET formats the signal depends on donor and acceptor labels being close together.
For another test, the target named is T2, Galanin receptor type 3 (Homo sapiens, UniProt O60755).
T2 sequence (O60755 whole entry): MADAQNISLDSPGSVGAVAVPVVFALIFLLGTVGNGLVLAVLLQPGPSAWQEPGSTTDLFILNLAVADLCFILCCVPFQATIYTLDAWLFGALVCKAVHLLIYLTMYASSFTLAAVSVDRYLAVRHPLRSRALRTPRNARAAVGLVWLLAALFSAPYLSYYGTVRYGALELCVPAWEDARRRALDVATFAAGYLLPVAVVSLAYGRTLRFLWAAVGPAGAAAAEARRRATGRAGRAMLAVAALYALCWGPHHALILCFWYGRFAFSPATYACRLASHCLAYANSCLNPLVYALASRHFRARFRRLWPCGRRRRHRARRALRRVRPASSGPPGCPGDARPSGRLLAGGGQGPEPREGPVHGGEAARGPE
The experiment in a line: Fluorescence-based cell-based primary high throughput dose response assay to identify antagonists of the Galanin Receptor 3 (GalR3). Format: functional.

Test [14] can be described thus: cells. Format: functional, cell-based. The note with it: HEK-CNG.
For test [15], the target named is COUP transcription factor 2 (Homo sapiens, UniProt P24468). The experiment in a line: Luminescence-based cell-based high throughput dose response assay to identify inhibitors of COUP-TFII (NR2F2). Format: functional.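 Further: HEK293 cells transiently cotransfected with COUP-TFII expression vector and reporter; luciferase reporter luminescence driven by COUP-TFII from the pX2-168 reporter plasmid.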
Test [16] in a line: P. falciparum late gametocyte killing, dose response, luminescence (AID 1117278).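 Further: gametocytes exposed to compound for 24 hours.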 The format is functional, cell-based.
A short description of test [17]: Jurkat T cell cytotoxicity, dose response, cytotoxicity control for P. falciparum gametocyte viability project, luminescence (AID 1117277).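 Further: potency reflects loss of cellular ATP meaning fewer viable cells.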 Format: functional, cell-based.

By IC50 is commonly meant the concentration needed to halve the response being measured. `CC(C)(C)c1nc(SCC(=O)NNC(=O)c2ccccc2)c2ccccc2n1`: the IC50 was 5.46 µM (active) at Major prion protein and > 138 µM (inactive) in the test “cells [1]”.

Usually Ki stands for a dissociation constant, usually derived from enzyme kinetics or from competition with a known ligand. For the molecule `CN1C(=O)/C(=C2\SC(=S)N(C(CCC(=O)O)C(=O)O)C2=O)c2ccccc21` (stereo not drawn), the concentration for half-maximal inhibition (IC50) at Prothrombin was > 50 µM (not active). Also, on fMet-Leu-Phe receptor, the Ki was > 66.7 µM (inactive).

Broadly, the AC50 is the concentration giving half of the maximal activity seen. `COc1ccccc1Nc1ccc(NC(=O)c2cccc([N+](=O)[O-])c2C)cc1`: the concentration at half-maximal activity (AC50) in [2] is 3.32 µM (active). The figures for the IC50 in [3] and in [4] were 15.4 µM (inactive) and > 69.5 µM (inactive), respectively.

In the case of `CC(C)(C)c1ccc(OCCn2c(CO)nc3ccccc32)cc1`, the AC50 in [5] was 20.6 µM (active); in the test “cells [6]”, 21.6 µM (active).

Broadly, the EC50 is the midpoint of the concentration-response curve. Take `Cc1ccsc1/C=N/N=C/c1sccc1C`: the EC50 (in [7]; in “cells [8]”) was > 67.5 µM (inactive) each time.

For the molecule `OC[C@H]1CC[C@@H]2O[C@H](CCc3ccc(C#CCc4ccccc4)cc3)[C@H](n3cc(-c4ccccc4)nn3)C[C@@H]2O1`, the AC50 in test [9] was 1.39 µM (active); in test [10], 0.739 µM (active); in test [11], 0.407 µM (active); in test [12], 0.665 µM (active).

For the molecule `CC(=O)C1=C(O)C(=O)N(Cc2ccco2)C1c1ccc(F)cc1` (stereo not drawn), the IC50 (on Protein Tat; in [13]) was > 100 µM (active) each time.

For the molecule `CC(C)c1ccc(CN2CCN(C(=O)CSc3nnnn3C3CC3)CC2)cc1`, the results for the half-maximal inhibitory concentration (IC50) (on Galanin receptor type 3; in test [15]) were 1.34 µM (active) and 8.28 µM (active), respectively. The EC50 in “cells [14]” is > 29.9 µM (inactive).

Regarding `Cc1cc(-c2csc(NC(=O)c3cc4ccccc4o3)n2)c(C)n1C`, on Protein Tat, the IC50 was > 100 µM (active).

In the case of `CC1CCCCN1C(=O)Cn1c(=O)oc2ccccc21` (stereo not drawn), the IC50 in [16] was > 109 µM (inactive); in test [17], > 83.3 µM (inactive).
